{"source": "patent US20190133968A1", "about": "“Applications of benzophenones in preparation of drug” (SHANXI MEDICAL UNIVERSITY, priority 2016, published 2019)", "system": "DN rats", "experiment": "type II diabetic nephropathy (DN) rat model (high-sugar high-fat diet + streptozocin)", "type": "in vivo, SD (Sprague Dawley) rats", "conditions": "for BUN / CREA / Glycated hemoglobin / Urinary protein / mALB (microalbumin in urine) / ICAM-1 / IL-1β / IL-6 / MDA / NF-κB / SOD / T-AOC / TGF-β1 / TNF-α / VCAM-1 / Glucose (GLU) / HDL-C / LDL-C / TC / TG / UA / Kidney coefficient: gavage, 6 weeks; for Urinary protein / mALB (microalbumin in urine): 6-hour urine; for ICAM-1 / IL-1β / IL-6 / MDA / NF-κB / SOD / T-AOC / TGF-β1 / TNF-α / VCAM-1: renal tissues; for Glucose (GLU) / HDL-C / LDL-C / TC / TG / UA: serum; for Kidney coefficient: weights of two kidneys/body weight", "description": "The solid dispersions are prepared through a solvent method, comprising steps of: respectively precisely weighing LM49, PVPK30 and tween80 with a weight ratio of 1:5:1, and A8, PVPK30 and tween80 with a weight ratio of 1:4:1; dissolving with appropriate absolute ethyl alcohol, continuously stirring, and uniformly mixing; placing on the water bath at 60° C., evaporating and removing the absolute ethyl alcohol, and obtaining a viscous material; placing in the freezer at −20° C., and freezing for 2 hours; taking out from the freezer, then placing in the vacuum drying oven, and drying for 24 hours; after becoming embrittlement, smashing and sieving with a sieve of 80 meshes, and then placing in the dryer for storage.\nThe healthy adult male SD rats (having a weight of 180-220 g) are fed with the high-sugar and high-fat diet for 4 weeks; the rats are fasting overnight; and streptozocin (STZ) of 40 mg/kg is intraperitoneally injected into the rats. The rats of normal control group are injected with the sodium citrate buffer of same volume; 72 hours later, the rats are fasting for 12 hours. […] During the administration period, the successfully established model rats are still fed with the high-sugar and high-fat diet, while the rats of the normal control group are fed with the normal diet.\nAfter administration for 6 weeks, 6-hour urine of the rats is collected with the metabolism cage.\nThe rats are fasting overnight and anesthetized intraperitoneally, then the abdominal aorta blood thereof is drawn for measuring the related indexes. The two kidneys of each rat are washed with the normal saline; weights of the kidneys are recorded; and the kidney coefficient (weights of two kidneys/body weight) is calculated. The renal tissues (comprising the glomerulus and renal tubules) at the same part of the left kidney are cut lengthwise and immersed in the 10% neutral formalin for pathomorphology analysis, and the other parts of the left kidney are used for biochemical index measurement; the right kidney is used for mechanism research and stored in the freezer at −80° C.\nAfter successfully establishing the model rats, expect the normal control group (ten rats), the remaining rats are randomly divided into eight groups, wherein each group has twelve rats. The eight groups are respectively the model group, the LM49 solid dispersion low-dose group (with the drug concentration of 3 mg/kg), the LM49 solid dispersion medium-dose group (with the drug concentration of 9 mg/kg), the LM49 solid dispersion high-dose group (with the drug concentration of 27 mg/kg), the A8 solid dispersion low-dose group (with the drug concentration of 3 mg/kg), the A8 solid dispersion medium-dose group (with the drug concentration of 9 mg/kg), the A8 solid dispersion high-dose group (with the drug concentration of 27 mg/kg), and the captopril control group (with the drug concentration of 15 mg/kg).\nAdministration Way: By Gavage.\nThe rats of the normal control group and the model group are administrated with the normal saline of 1.0 ml/100 g; the rats of the positive control group, the LM49 solid dispersion high-dose, medium-dose and low-dose groups and the A8 solid dispersion high-dose, medium-dose and low-dose groups are respectively administrated with the drugs of different concentrations, and the administration volume is 1.0 ml/100 g.\nThe solid dispersions are dissolved by the normal saline; and the rats of the positive control group are administrated with the 0.5% CMC-Na (sodium carboxymethyl cellulose) suspension.\nThe rats are administrated seven days a week, for totally six weeks.\nThe IBM SPSS Statistics 20 software is used for data processing, and the data is represented in x±s. The one-way analysis of variance (ANOVA) is adopted for comparison among the groups. According to the homogeneity test results of variance, if the variance is equal, the LSD (least significant difference) test is adopted; if the variance is unequal, the Dunnett's T3 test is adopted. […]"}
{"smiles": "O=C(c1cc(Br)ccc1O)c1cc(O)c(O)cc1Br", "note": "[LM49, 2,5′-dibromo-4,5,2′-trihydroxyldiphenylmethanone]", "values": [{"measurement": "BUN", "setting": "DN rats, high-dose 27 mg/kg", "result": "10.66 ± 2.52", "unit": "mmol/L"}, {"measurement": "CREA", "setting": "DN rats, high-dose 27 mg/kg", "result": "55.12 ± 4.05", "unit": "µmol/L"}, {"measurement": "Glycated hemoglobin", "setting": "DN rats, high-dose 27 mg/kg", "result": "8.10 ± 1.50", "unit": "%"}, {"measurement": "Urinary protein", "setting": "DN rats, high-dose 27 mg/kg", "result": "2.82 ± 0.54^□□▴◯● mg/6 h"}, {"measurement": "mALB (microalbumin in urine)", "setting": "DN rats, high-dose 27 mg/kg", "result": "52.22 ± 7.46^□□▴▴ μg/6 h"}, {"measurement": "ICAM-1", "setting": "DN rats, high-dose 27 mg/kg", "result": "282.88 ± 59.07", "unit": "pg/mgprog"}, {"measurement": "IL-1β", "setting": "DN rats, high-dose 27 mg/kg", "result": "121.69 ± 16.12", "unit": "pg/mgprog"}, {"measurement": "IL-6", "setting": "DN rats, high-dose 27 mg/kg", "result": "119.09 ± 11.51^□ pg/mgprog"}, {"measurement": "MDA", "setting": "DN rats, high-dose 27 mg/kg", "result": "1.16 ± 0.19", "unit": "nmol/mgprog"}, {"measurement": "NF-κB", "setting": "DN rats, high-dose 27 mg/kg", "result": "215.39 ± 43.61^□□▴▴◯◯ pg/mgprog"}, {"measurement": "SOD", "setting": "DN rats, high-dose 27 mg/kg", "result": "4.06 ± 0.78", "unit": "U/mgprog"}, {"measurement": "T-AOC", "setting": "DN rats, high-dose 27 mg/kg", "result": "1.37 ± 0.31", "unit": "U/mgprog"}, {"measurement": "TGF-β1", "setting": "DN rats, high-dose 27 mg/kg", "result": "30.58 ± 5.83^□□▴▴ pg/mgprot"}, {"measurement": "TNF-α", "setting": "DN rats, high-dose 27 mg/kg", "result": "279.29 ± 41.89^□ pg/mgprog"}, {"measurement": "VCAM-1", "setting": "DN rats, high-dose 27 mg/kg", "result": "26.85 ± 5.63", "unit": "pg/mgprog"}, {"measurement": "Glucose (GLU)", "setting": "DN rats, high-dose 27 mg/kg", "result": "10.73 ± 2.89^□□▴◯ mmol/L"}, {"measurement": "HDL-C", "setting": "DN rats, high-dose 27 mg/kg", "result": "1.17 ± 0.24", "unit": "mmol/L"}, {"measurement": "LDL-C", "setting": "DN rats, high-dose 27 mg/kg", "result": "1.61 ± 0.54^□□ mmol/L"}, {"measurement": "TC", "setting": "DN rats, high-dose 27 mg/kg", "result": "3.00 ± 0.79^□□ mmol/L"}, {"measurement": "TG", "setting": "DN rats, high-dose 27 mg/kg", "result": "0.54 ± 0.13^□□ mmol/L"}, {"measurement": "UA", "setting": "DN rats, high-dose 27 mg/kg", "result": "29.41 ± 7.23^□□●● μmol/L"}, {"measurement": "Kidney coefficient", "setting": "DN rats, high-dose 27 mg/kg", "result": "1.00 ± 0.09", "unit": "%"}, {"measurement": "lesions of the renal tissues", "setting": "DN rats, kidney pathology (HE, Masson staining)", "result": "effectively reduce the lesions of the renal tissues"}, {"measurement": "BUN", "setting": "DN rats, low-dose 3 mg/kg", "result": "11.59 ± 2.78", "unit": "mmol/L"}, {"measurement": "CREA", "setting": "DN rats, low-dose 3 mg/kg", "result": "54.11 ± 3.50", "unit": "µmol/L"}, {"measurement": "Glycated hemoglobin", "setting": "DN rats, low-dose 3 mg/kg", "result": "9.01 ± 0.61", "unit": "%"}, {"measurement": "Urinary protein", "setting": "DN rats, low-dose 3 mg/kg", "result": "5.81 ± 1.42^□□ mg/6 h"}, {"measurement": "mALB (microalbumin in urine)", "setting": "DN rats, low-dose 3 mg/kg", "result": "143.47 ± 33.28^□□●● μg/6 h"}, {"measurement": "ICAM-1", "setting": "DN rats, low-dose 3 mg/kg", "result": "384.02 ± 100.59", "unit": "pg/mgprog"}, {"measurement": "IL-1β", "setting": "DN rats, low-dose 3 mg/kg", "result": "158.77 ± 43.38", "unit": "pg/mgprog"}, {"measurement": "IL-6", "setting": "DN rats, low-dose 3 mg/kg", "result": "195.42 ± 2.34", "unit": "pg/mgprog"}, {"measurement": "MDA", "setting": "DN rats, low-dose 3 mg/kg", "result": "1.65 ± 0.25", "unit": "nmol/mgprog"}, {"measurement": "NF-κB", "setting": "DN rats, low-dose 3 mg/kg", "result": "2415.59 ± 515.30", "unit": "pg/mgprog"}, {"measurement": "SOD", "setting": "DN rats, low-dose 3 mg/kg", "result": "5.66 ± 1.87", "unit": "U/mgprog"}, {"measurement": "T-AOC", "setting": "DN rats, low-dose 3 mg/kg", "result": "1.52 ± 0.58", "unit": "U/mgprog"}, {"measurement": "TGF-β1", "setting": "DN rats, low-dose 3 mg/kg", "result": "100.46 ± 25.56", "unit": "pg/mgprot"}, {"measurement": "TNF-α", "setting": "DN rats, low-dose 3 mg/kg", "result": "573.35 ± 150.75", "unit": "pg/mgprog"}, {"measurement": "VCAM-1", "setting": "DN rats, low-dose 3 mg/kg", "result": "39.34 ± 10.56", "unit": "pg/mgprog"}, {"measurement": "Glucose (GLU)", "setting": "DN rats, low-dose 3 mg/kg", "result": "19.94 ± 6.09^□□ mmol/L"}, {"measurement": "HDL-C", "setting": "DN rats, low-dose 3 mg/kg", "result": "1.27 ± 0.12", "unit": "mmol/L"}, {"measurement": "LDL-C", "setting": "DN rats, low-dose 3 mg/kg", "result": "1.90 ± 0.54^□□ mmol/L"}, {"measurement": "TC", "setting": "DN rats, low-dose 3 mg/kg", "result": "3.28 ± 0.59^□□ mmol/L"}, {"measurement": "TG", "setting": "DN rats, low-dose 3 mg/kg", "result": "0.38 ± 0.10^□□ mmol/L"}, {"measurement": "UA", "setting": "DN rats, low-dose 3 mg/kg", "result": "26.01 ± 6.54^□□●● μmol/L"}, {"measurement": "Kidney coefficient", "setting": "DN rats, low-dose 3 mg/kg", "result": "1.08 ± 0.09", "unit": "%"}, {"measurement": "BUN", "setting": "DN rats, medium-dose 9 mg/kg", "result": "10.97 ± 3.01", "unit": "mmol/L"}, {"measurement": "CREA", "setting": "DN rats, medium-dose 9 mg/kg", "result": "55.25 ± 1.01", "unit": "µmol/L"}, {"measurement": "Glycated hemoglobin", "setting": "DN rats, medium-dose 9 mg/kg", "result": "8.59 ± 0.85", "unit": "%"}, {"measurement": "Urinary protein", "setting": "DN rats, medium-dose 9 mg/kg", "result": "5.29 ± 0.61^□□ mg/6 h"}, {"measurement": "mALB (microalbumin in urine)", "setting": "DN rats, medium-dose 9 mg/kg", "result": "125.38 ± 23.67^□□● μg/6 h"}, {"measurement": "ICAM-1", "setting": "DN rats, medium-dose 9 mg/kg", "result": "334.79 ± 55.46", "unit": "pg/mgprog"}, {"measurement": "IL-1β", "setting": "DN rats, medium-dose 9 mg/kg", "result": "146.20 ± 16.12", "unit": "pg/mgprog"}, {"measurement": "IL-6", "setting": "DN rats, medium-dose 9 mg/kg", "result": "168.44 ± 30.33", "unit": "pg/mgprog"}, {"measurement": "MDA", "setting": "DN rats, medium-dose 9 mg/kg", "result": "1.92 ± 0.34", "unit": "nmol/mgprog"}, {"measurement": "NF-κB", "setting": "DN rats, medium-dose 9 mg/kg", "result": "1017.81 ± 239.12^□▴●● pg/mgprog"}, {"measurement": "SOD", "setting": "DN rats, medium-dose 9 mg/kg", "result": "5.33 ± 1.01", "unit": "U/mgprog"}, {"measurement": "T-AOC", "setting": "DN rats, medium-dose 9 mg/kg", "result": "1.93 ± 0.43", "unit": "U/mgprog"}, {"measurement": "TGF-β1", "setting": "DN rats, medium-dose 9 mg/kg", "result": "53.60 ± 11.60^□● pg/mgprot"}, {"measurement": "TNF-α", "setting": "DN rats, medium-dose 9 mg/kg", "result": "436.04 ± 84.54", "unit": "pg/mgprog"}, {"measurement": "VCAM-1", "setting": "DN rats, medium-dose 9 mg/kg", "result": "34.76 ± 5.04", "unit": "pg/mgprog"}, {"measurement": "Glucose (GLU)", "setting": "DN rats, medium-dose 9 mg/kg", "result": "18.58 ± 2.71^□□ mmol/L"}, {"measurement": "HDL-C", "setting": "DN rats, medium-dose 9 mg/kg", "result": "1.16 ± 0.21", "unit": "mmol/L"}, {"measurement": "LDL-C", "setting": "DN rats, medium-dose 9 mg/kg", "result": "1.51 ± 0.48^□□ mmol/L"}, {"measurement": "TC", "setting": "DN rats, medium-dose 9 mg/kg", "result": "2.71 ± 0.49^□□ mmol/L"}, {"measurement": "TG", "setting": "DN rats, medium-dose 9 mg/kg", "result": "0.30 ± 0.11^□□ mmol/L"}, {"measurement": "UA", "setting": "DN rats, medium-dose 9 mg/kg", "result": "25.63 ± 5.83^□□●● μmol/L"}, {"measurement": "Kidney coefficient", "setting": "DN rats, medium-dose 9 mg/kg", "result": "1.09 ± 0.14", "unit": "%"}, {"measurement": "effect on resisting the DN of rats", "setting": "overall summary in words", "result": "obvious effect on resisting the DN of rats"}]}
